Series [1] deals with T1, HsPrx3 (human peroxiredoxin 3, wtHsPrx3) (Homo sapiens, UniProt P30048).
T1 construct: gene PRDX3; three additional N-terminal Gly; E. coli BL21 Star (DE3); reduced subunit predicted 21,797 Da; three Cys; dodecamer when reduced
T1 sequence (P30048 62-256): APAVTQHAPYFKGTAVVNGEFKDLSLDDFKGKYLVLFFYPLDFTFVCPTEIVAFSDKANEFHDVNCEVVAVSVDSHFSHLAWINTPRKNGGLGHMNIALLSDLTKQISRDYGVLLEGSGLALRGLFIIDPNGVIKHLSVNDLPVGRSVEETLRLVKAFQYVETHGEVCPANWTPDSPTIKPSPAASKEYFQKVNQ
Put plainly: stopped-flow intrinsic fluorescence, slope of kobs of second phase. Type of series: biochemical. Conditions: rate constant of peroxidatic Cys hyperoxidation; covalent oxidation, inactivating; pH 7.8, 11–12 °C, 50 mM sodium phosphate, 0.1 mM DTPA. From the text:
stopped-flow intrinsic fluorescence, slope of kobs of second phase on HsPrx3 (human peroxiredoxin 3, wtHsPrx3)

Series [2] concerns the target T1, HsPrx3 (human peroxiredoxin 3, wtHsPrx3). Put plainly: thermal unfolding by intrinsic fluorescence. Conditions: reduced HsPrx3 4 µM, AA 10 µM, 2 mM DTT, 50 mM phosphate, 0.1 mM DTPA, pH 7.8. Format: binding.
Series [3] has the same target. Description: intrinsic tryptophan fluorescence quenching / FRET titration, hyperbolic fit. Format: binding.
Series [4] concerns the molecule itself. Put plainly: ESI mass spectrometry of the intact protein after C4 HPLC; reduced HsPrx3 (10 µM) in 50 mM phosphate buffer plus 0.1 mM DTPA, pH 7.8, 25 °C, exposed to H2O2 (20 µM) or 15(S)-HpEPE (10 or 20 µM), alkylated with 2-iodoacetamide (5 mM); disulfide-bonded dimer.

As a reminder, the Kd is the concentration at which binding is half-saturated. Higher therefore signals lower affinity. The term stoichiometry N denotes a count of units in the complex or per binding partner.

`CC/C=C\C[C@@H](/C=C/C=C\C/C=C\C/C=C\CCCC(=O)O)OO` [15(S)-HpEPE, 15S-hydroperoxy-5Z,8Z,11Z,13E,17Z-eicosapentaenoic acid]: the “khyperox. (M^-1s^-1)” value in series [1] is reported as “(2.6 ± 0.4) × 10^7 M^−1s^−1”. Same read-out and setting: the entry for `CCCCC[C@@H](/C=C/C=C\C/C=C\C/C=C\CCCC(=O)O)OO` [15(S)-HpETE, 15S-hydroperoxy-5Z,8Z,11Z,13E-eicosatetraenoic acid] is “(1.7 ± 0.1) × 10^7 M^−1s^−1”. Turning to `CCCCC/C=C\C/C=C\C/C=C\C/C=C\CCCC(=O)O` [AA], in series [2], the Tm shift was ~ 4 °C. In turn, `O=S(=O)(O)c1cccc2cccc(Nc3ccccc3)c12` [ANS, 8-anilino-1-naphtalene sulfonic acid] registered a Kd in series [3] of 65 ± 4 µM. Consider `CCCCC[C@@H](/C=C/[C@@H]1[C@@H](C/C=C\CCCC(=O)O)[C@@H]2C[C@H]1OO2)OO` [PGG2, 9α,11α-epidioxy-15S-hydroperoxy-prosta-5Z,13E-dien-1-oic acid], for which the “khyperox. (M^-1s^-1)” value in series [1] was “(3.1 ± 0.7) × 10^5 M^−1s^−1”.

B1: Human peroxiredoxin 3 (wild type, recombinant, lacking the mitochondrial targeting sequence) (enzyme)
chain: GGGAPAVTQHAPYFKGTAVVNGEFKDLSLDDFKGKYLVLFFYPLDFTFVCPTEIVAFSDKANEFHDVNCEVVAVSVDSHFSHLAWINTPRKNGGLGHMNIALLSDLTKQISRDYGVLLEGSGLALRGLFIIDPNGVIKHLSVNDLPVGRSVEETLRLVKAFQYVETHGEVCPANWTPDSPTIKPSPAASKEYFQKVNQ
notes: predicted molecular weight of the reduced subunit 21,797 Da; Samples were alkylated (NEM or 2-iodoacetamide) before analysis; also called HsPrx3; wtHsPrx3; source: E. coli BL21 Star (DE3), purified as previously reported [13]
For B1, the “stoichiometry N” value in series [4] amounted to 2.

These data come from article PMC9952270, “Mitochondrial Peroxiredoxin 3 Is Rapidly Oxidized and Hyperoxidized by Fatty Acid Hydroperoxides” (Antioxidants, 2023).
